# Reference: US12630594B2, “Allergy antigen and epitope for same” (HOYU CO., LTD., priority 2017, dated 2026)
# System: IgE antibody present in the serum of a fish-allergic patient
# Assay: Epitope mapping (1): peptide array of overlapping 15-amino-acid peptides
# Assay type: binding, human
# Conditions: average of 5 patients / average of 4 non-fish-allergic subjects at least 1.5, Mann-Whitney U test
# Description: Epitope mapping was carried out using a library of overlapping peptides (length: 15 amino acids) corresponding to the amino acid sequences identified as allergy components of fish and the amino acid sequences of known fish allergy antigens aldolase, β-enolase, and glyceraldehyde-3-phosphate dehydrogenase (Non Patent Literature 2-4). Specifically, the library of overlapping peptides was prepared on the basis of the amino acid sequences of SEQ ID NO: 2 for alpha-actinin-3, SEQ ID NO: 5 for EEF1A2 binding protein-like, SEQ ID NO: 10 for alpha-1,4-glucan phosphorylase, SEQ ID NO: 19 for elongation factor 2, SEQ ID NO: 26 for heat shock cognate 70 kDa protein, SEQ ID NO: 33 for serotransferrin, SEQ ID NO: 43 for myosin binding protein H-like, SEQ ID NO: 56 for desmin (fragment), SEQ ID NO: 61 for capping protein (actin filament) muscle Z-line beta, SEQ ID NO: 70 for myosin heavy chain, fast skeletal muscle-like, SEQ ID NO: 110 for glycogen phosphorylase, muscle form-like, SEQ ID NO: 121 for myosin-binding protein C, fast-type-like, SEQ ID NO: 138 for ATP synthase subunit beta, mitochondrial, SEQ ID NO: 144 for L-lactate dehydrogenase A chain-like, SEQ ID NO: 445 for aldolase, SEQ ID NO: 446 for β-enolase, and SEQ ID NO: 447 for glyceraldehyde-3-phosphate dehydrogenase.
# The peptides to be synthesized were shifted by 10 amino acids.
# For preparation of peptide arrays, the Intavis CelluSpots™ technique was used. Specifically, the peptide arrays were prepared by the following procedure: (1) synthesizing peptides of interest on amino-modified cellulose disks using an automated chemical synthesis apparatus (Intavis MultiPep RS), (2) dissolving the amino-modified cellulose disks to obtain a cellulose-bound peptide solution, and (3) spotting the cellulose-bound peptides onto coated glass slides. The details of each procedure are as described below.
# The presence or absence of binding, to each peptide fragment, of an IgE antibody present in the serum of a fish-allergic patient was measured through antigen-antibody reaction using the peptide arrays. The measurement was carried out according to the following procedure. • (1) The peptides were shaken at room temperature for 1 hour in PBST. • (2) The peptide arrays were shaken at overnight at room temperature in 5% serum/PBST. • (3) The peptide arrays were washed with a PBST solution (a PBS buffer containing 0.1% Tween 20 nonionic surfactant) for 5 minutes (×3). • (4) Anti-human IgE antibody-HRP(1:5,000, PBST) was added thereto, and the peptide arrays were shaken at room temperature for 1 hour. • (5) The peptide arrays were washed with a PBST solution for 5 minutes (×3). • (6) Pierce ECL Plus Western Blotting Substrate (produced by Thermo Fisher Scientific) was added thereto, and the peptide arrays were shaken at room temperature for 5 minutes. • (7) The chemiluminescence of the peptides treated as described above in (1) to • (6) was measured using Amersham Imager 600.
# Chemiluminescence intensity in images obtained by the measurement described above in (7) was converted into a numeric value using ImageQuant TL (GE Healthcare). The average value of numeric values determined from images obtained from results about the serum of 5 patients was divided by the average value of numeric values determined from images obtained from results about the serum of 4 non-fish-allergic subjects. It was determined that a peptide having a calculated value (average value of the patient group/average value of the non-fish-allergic subject group) of at least 1.5 and a significant difference of […] in the Mann-Whitney U test was a peptide bound to an IgE antibody in a patient-specific manner.
row,IgE antibody binding in a patient-specific manner,Substance
1,bind in a patient-specific manner,7 (GGYIQAVLDRNLCEN; epitope) [compound 7]
2,bind in a patient-specific manner,9 (AIMDKKSNIRNMSVI; epitope) [compound 9]
3,bind in a patient-specific manner,10 (GKSTLTDSLVSKAGI; epitope) [compound 10]
4,bind in a patient-specific manner,48 (NVAKAHGGYSVFAGV; epitope) [compound 48]

# System: IgE antibodies from patients
# Assay: Epitope mapping (3): alanine scanning
# Parameters: species or system human
# Conditions: positions numbered within the region important for binding; no influence on IgE binding when substituted by alanine
# Description: From the amino acid sequences identified above in (A), a library of peptide fragments in which N-terminal amino acids were substituted one by one by alanine according to a technique called alanine scanning (Non Patent Literature 5) was prepared by the same technique as described above. The presence or absence of binding of an IgE antibody present in the serum of a patient and a non-fish-allergic subject to each peptide fragment was measured by the same technique as described above. Amino acids at positions where the binding activity against IgE antibodies from patients were lost or decreased by the substitution by alanine while binding activity against IgE antibodies from non-fish-allergic subjects arose were confirmed as amino acids important for exertion of original antigenicity, or amino acids influencing exertion of original antigenicity.
# Chemiluminescence intensity in images obtained by measurement was converted into a numeric value in the same manner as in (A) using ImageQuant TL (GE Healthcare). When values obtained using the sequences (SEQ ID NOs: 150-204) that were of the peptides confirmed to bind to an IgE antibody in a patient specific manner from the images obtained from results about the serum of 5 patients and served as the basis of overlapping were defined as 100%, it was determined that: a peptide having a value of less than 20% had no binding activity against IgE antibodies; a peptide having a value of 20% or more and less than 50% had binding activity, albeit poor, against IgE antibodies; a peptide having a value of 50% or more and less than 70% had binding activity, albeit somewhat poor, against IgE antibodies; a peptide having a value of 70% or more and less than 90% had equivalent binding activity against IgE antibodies; and a peptide having a value of 90% or more had almost equivalent or good binding activity against IgE antibodies and was thus a peptide had remaining binding activity against IgE antibodies.
# By this analysis, common sequences important for exertion of original antigenicity were found in regions important for binding to IgE antibodies from patients, in the sequences serving as the basis of overlapping.
row,Substance,Non-binding-influencing amino acid in region important for binding
1,3 (SCFYHAFAGAEQAET; epitope) [compound 3],2
2,12 (EAEQYKAADDVQRDK; heat shock cognate 70 kDa protein epitope) [compound 12],2
3,13 (KLSDEDKQKILDKCN; epitope) [compound 13],4
4,18 (YYGYNGAFRCLVEDA; epitope) [compound 18],2
5,19 (RYVKKVGEKINIVIP; epitope) [compound 19],3
6,26 (VILIKKAGDGSKKIK; epitope) [compound 26],3-5
7,30 (TVTALDFREGKEFKD; epitope) [compound 30],2-4
8,31 (YNSMEQLCINFTNEK; epitope) [compound 31],2
9,38 (LKATKKKKKPVVDEE; epitope) [compound 38],2
10,44 (YTFIPDGYALSLSAK; epitope) [compound 44],2-4
11,51 (DGDKSRYLGKGTVKA; epitope) [compound 51],7
12,52 (YRHIADLAGHKDVIL; epitope) [compound 52],2-4
13,53 (NLKNVIKAKYGKDAT; epitope) [compound 53],3-6
14,"SEQ ID NO: 207: region important for binding, amino acids at positions 1-10 of epitope 1 (SEQ ID NO: 150) (SGERLPKPDK; epitope)",2-6
15,"SEQ ID NO: 210: region important for binding, amino acids at positions 9-14 of epitope 1 (SEQ ID NO: 150) (DKGKMR; epitope)",3-5

# System: IgE antibodies from patients
# Assay: Epitope mapping (2): overlapping 10-amino-acid peptide fragments shifted by one amino acid
# Assay type: binding, human
# Conditions: positions numbered within the 15-amino-acid epitope; serum of 5 patients
# Excerpt: On the basis of the sequences (SEQ ID NOs: 150-154 for alpha-actinin-3, SEQ ID NO: 155 for EEF1A2 binding protein-like, SEQ ID NOs: 156 and 157 for alpha-1,4-glucan phosphorylase, SEQ ID NOs: 158 and 159 for elongation factor 2, SEQ ID NOs: 160-162 for heat shock cognate 70 kDa protein, SEQ ID NOs: 163-167 for serotransferrin, SEQ ID NOs: 168-171 for myosin binding protein H-like, SEQ ID NOs: 172-174 for desmin (fragment), SEQ ID NOs: 175-178 for capping protein (actin filament) muscle Z-line beta, SEQ ID NOs: 179-185 for myosin heavy chain, fast skeletal muscle-like, SEQ ID NO: 186 for glycogen phosphorylase, muscle form-like, SEQ ID NOs: 187-196 for myosin-binding protein C, fast-type-like, SEQ ID NO: 197 for ATP synthase subunit beta, mitochondrial, SEQ ID NO: 198 for L-lactate dehydrogenase A chain-like, SEQ ID NO: 199 for aldolase, SEQ ID NOs: 200-202 for β-enolase, and SEQ ID NOs: 203 and 204 for glyceraldehyde-3-phosphate dehydrogenase) of the peptides bound to an IgE antibody in serum in a patient-specific manner as described above in (A), a library of overlapping peptide fragments (length: 10 amino acids) was prepared using the sequences of the peptides and sequences in which sequences were added so as to flank each peptide in the amino acid sequences of allergen components (SEQ ID NO: 2 for alpha-actinin-3, SEQ ID NO: 5 for EEF1A2 binding protein-like, SEQ ID NO: 10 for alpha-1,4-glucan phosphorylase, SEQ ID NO: 19 for elongation factor 2, SEQ ID NO: 26 for heat shock cognate 70 kDa protein, SEQ ID NO: 33 for serotransferrin, SEQ ID NO: 43 for myosin binding protein H-like, SEQ ID NO: 56 for desmin (fragment), SEQ ID NO: 61 for capping protein (actin filament) muscle Z-line beta, SEQ ID NO: 70 for myosin heavy chain, fast skeletal muscle-like, SEQ ID NO: 110 for glycogen phosphorylase, muscle form-like, SEQ ID NO: 121 for myosin-binding protein C, fast-type-like, SEQ ID NO: 138 for ATP synthase subunit beta, mitochondrial, SEQ ID NO: 144 for L-lactate dehydrogenase A chain-like, SEQ ID NO: 445 for aldolase, SEQ ID NO: 446 for β-enolase, and SEQ ID NO: 447 for glyceraldehyde-3-phosphate dehydrogenase) comprising the sequences of the peptide. Epitope mapping was carried out using the library.
# The peptides to be synthesized were shifted by one amino acid.
# The library was prepared by the same procedure as described above in (A), and the presence or absence of binding of an IgE antibody present in the serum of a patient and a non-fish-allergic subject to each peptide fragment was measured by the same technique as described above. Amino acids at positions where the binding activity against IgE antibodies from patients were lost or decreased in the peptides shifted by one amino acid while binding activity against IgE antibodies from non-fish-allergic subjects arose were confirmed as amino acids adversely affecting the specificity of binding to IgE antibodies.
# Chemiluminescence intensity in images obtained by measurement was converted into a numeric value in the same manner as in (A) using ImageQuant TL (GE Healthcare). […]
row,Substance,Positions of amino acids of region important for binding in epitope
1,3 (SCFYHAFAGAEQAET; epitope) [compound 3],1-15
2,4 (TKLRLSNRPAFMPSE; epitope) [compound 4],1-15

# Continued, values first:
row,Positions of amino acids of region important for binding in epitope,Substance
1,8-15,15 (YSGAFQCLKDGAGEV; epitope) [compound 15]
2,2-15,21 (KEVIDYKPTPFVEHD; epitope) [compound 21]
3,1-7,25 (DVGRSAEVHSKKTVL; epitope) [compound 25]
4,2-12,27 (IHVVEVQEKSSGRTA; epitope) [compound 27]
5,3-14,29 (DNQKYRQLQKELSQV; epitope) [compound 29]
6,7-15,31 (YNSMEQLCINFTNEK; epitope) [compound 31]
7,1-10,32 (LYPPPPPEDKAKKGG; epitope) [compound 32]
8,5-14,34 (EEDKVNTLTKAKTKL; epitope) [compound 34]
9,2-8,40 (TDLRGLLKRLKKMKT; epitope) [compound 40]
10,3-7,45 (GAPVTGYLMERKKKG; epitope) [compound 45]
11,2-13,46 (RQKYIRRVGDKINLT; epitope) [compound 46]
12,6-13,51 (DGDKSRYLGKGTVKA; epitope) [compound 51]
13,6-15,53 (NLKNVIKAKYGKDAT; epitope) [compound 53]
